Results reported in US20260250312A1, “ANTIBACTERIAL COMPOUNDS ELIMINATING DORMANT BACTERIAL CELLS” (UNIVERSITÉ D'AIX-MARSEILLE, priority 2022, published 2026).
In brackets after ≈: the same amount, converted by molar mass. Several values for one entry are separate records, joined by “and”; a condition that tells them apart may be missing. Identical values can stand only once. Like-named read-outs stand apart in the source and are kept apart here.

How the values were obtained:
[1] = tested on: Enterococcus faecalis (ATCC29212); experiment: Microdilution MIC assay (CLSI-based), E. faecalis; type: cell-based; conditions: 20 hours incubation at 35-37° C., MHB; for MIC: read-out: Minimum inhibitory concentration E. faecalis ATCC29212
Protocol: (§1) The antibacterial activity of compounds was measured using a standard microdilution assay based on the Clinical and Laboratory Standards Institute (CLSI) guidelines. This method was slightly modified. Indeed, assay volumes were increased to 200 μL to improve reproducibility. The chemical compounds to be tested were in the form of salts for biological testing.
(§2) Bacteria tested: Antibacterial activities of the compounds were tested on Staphylococcus aureus (ATCC25923), Enterococcus faecalis (ATCC29212), Escherichia coli ([…]) and Pseudomonas aeruginosa (ATCC27853).
(§3) Preparation of the Preculture: Mueller Hinton Agar plates were inoculated with frozen biological strain in order to obtain separate colonies and the plates were incubated during 24 h at 35-37° C. 3 colonies of similar aspect were picked out, resuspended in 5 mL of fresh Mueller Hinton broth 1× (MHB) and incubated with shaking (160 rpm) at 35-37° C. overnight.
(§4) 0.1 mL of bacteria in exponential phase were suspended in 9.9 mL of MHB (1:100 dilution). 0.1 mL of the 1:100 dilution were dispensed into the wells of microplates containing 0.1 ml of serial compounds dilutions to yield ca. 5×10^5 CFU/mL. In parallel, the stocks solutions of chemical compounds were first diluted in appropriate solvent to a final concentration of 5 mg/mL. 8 μL were dispended into the first wells of the microplates containing 0.1 ml of sterile broth and a 0.5 cascade dilution was performed in MHB from 0.2 mg/mL. One control was made for each strain tested. […] Tests were performed in triplicate.
(§5) Reading of the Results: After incubation, the filter was replaced with a transparent film, and an optical density reading was then taken in an iEMS plate spectrophotometer at 620 nm. Calculation of the minimum inhibitory concentration (MIC) was performed.

[2] = tested on: Pseudomonas aeruginosa (ATCC27853); experiment: Microdilution MIC assay (CLSI-based), P. aeruginosa; type: cell-based; conditions: 20 hours incubation at 35-37° C., MHB; for MIC: read-out: Minimum inhibitory concentration P. aeruginosa ATCC27853
Protocol: as §1, §2, §3, §4, §5

[3] = tested on: Staphylococcus aureus (ATCC25923); experiment: Microdilution MIC assay (CLSI-based), S. aureus; type: cell-based; conditions: 20 hours incubation at 35-37° C., MHB; for MIC: read-out: Minimum inhibitory concentration S. aureus ATCC25923
Protocol: as §1, §2, §3, §4, §5

[4] = tested on: Escherichia coli (ATCC28922); experiment: Microdilution MIC assay (CLSI-based), E. coli; type: cell-based; conditions: 20 hours incubation at 35-37° C., MHB; for MIC: read-out: Minimum inhibitory concentration E. coli ATCC28922
Protocol: as §1, §2, §3, §4, §5

[5] = tested on: CHO-K1 cells; experiment: WST1 cytotoxicity test; type: cell-based, Chinese hamster; conditions: Cricetulus griseus, CHO-K1, 24 h, WST1, 24 hours at 37° C.; read-out: IC50 CHO
Text: Cytotoxicity: The test WST1 was used to measure the cytotoxic activity of the compounds of the invention. The test WST1 is a colorimetric test allowing to measure the viability and the degree of cell proliferation. It is based on cleavage of the colorless tetrazolium salts WST-1 (4—[3-(4-iodophenyl)-2-(4-nitrophenyl)-2H-5-tetrazolio]-1,3-benzene disulfonate) with mitochondrial dehydrogenases to the yellow-colored formazan derivative, which may be quantified by spectrophotometry at 420-480 nm. The WST1 test was performed on Chinese hamster ovary (CHO) cells. The CHO-K1 cells (ATCC, USA) were kept in culture in McCoy's 5A medium supplemented with 10% fetal calf serum, 2 mM of L-glutamine and a mixture of penicillin-streptomycin (100 U/ml: 10 μg/mL). The culture was incubated at 37° C. under an atmosphere enriched in CO2 (5%), and subcultured every two days. The cells were transferred into 96-well plates (25,000 cells/mL) in whole McCoy's 5A medium, and maintained for 24 hours at 37° C. under a humid atmosphere enriched in CO2 (5%). Increasing concentrations of tested compounds were added to the wells, each compound was tested in replicates and 8 growth controls containing the cells in the medium alone were included in each series of tests. After 24 hours at 37° C. (5% CO2), the culture medium was removed, the cells were rinsed in phosphate buffer (PBS) and 50 μL of PBS containing 10% of reagent WST1 were added to each well. After 20 minutes of incubation at 37° C., the results were read by spectrophotometry at 450 nm. The results are expressed in dose-response relationships, modeled by nonlinear regression analysis using the TableCurve software.
Cytotoxicity: The same WST1 test as described in Example 2 above was used.

[6] = Enterococcus faecalis, ATCC29212, 20 h
[7] = Pseudomonas aeruginosa, ATCC27853, 20 h
[8] = Staphylococcus aureus, ATCC25923, 20 h
[9] = Escherichia coli, ATCC28922, 20 h

| SMILES | Minimum inhibitory concentration E. faecalis ATCC29212 [1] | MIC [1] | Minimum inhibitory concentration P. aeruginosa ATCC27853 [2] | MIC [2] | Minimum inhibitory concentration S. aureus ATCC25923 [3] | MIC [3] | Minimum inhibitory concentration E. coli ATCC28922 [4] | MIC [4] | MIC [1, 6] | IC50 [5] | MIC [2, 7] | MIC [3, 8] | MIC [4, 9] |
| --- | --- | --- | --- | --- | --- | --- | --- | --- | --- | --- | --- | --- | --- |
| COC(=O)[C@H](NC(=O)CC[C@@H](C)[C@H]1CCC2C3C(CC[C@@]21C)[C@@]1(C)CC[C@H](NCCCNCCCN)C[C@H]1C[C@H]3O)C(C)C (stereo partly drawn) [Compound S021, methyl ((4R)-4-((3S,5S,7R,10S,13R,17R)-3-((3-((3-aminopropyl)amino)propyl)amino)-7-hydroxy-10,13-dimethylhexadecahydro-1H-cyclopenta[a]phenanthren-17-yl)pentanoyl)-D-valinate] | 32 µg/mL (≈ 51.7 µM) | 50 µM (≈ 30.9 µg/mL) | 32 µg/mL (≈ 51.7 µM) | 50 µM (≈ 30.9 µg/mL) | 8 µg/mL (≈ 12.9 µM) | 12.5 µM (≈ 7.74 µg/mL) | 32 µg/mL (≈ 51.7 µM) | 50 µM (≈ 30.9 µg/mL) |  |  |  |  |  |
| COC(=O)[C@H](C)NC(=O)CC[C@@H](C)[C@H]1CCC2C3C(CC[C@@]21C)[C@@]1(C)CC[C@H](NCCCNCCNCCCN)C[C@H]1C[C@H]3O (stereo partly drawn) [Compound S034, methyl ((4R)-4-((3S,5S,7R,10S,13R,17R)-3-((3-((2-((3-aminopropyl)amino)ethyl)amino)propyl)amino)-7-hydroxy-10,13-dimethylhexadecahydro-1H-cyclopenta[a]phenanthren-17-yl)pentanoyl)-L-alaninate] |  |  |  |  |  |  |  |  | 6.25 µM and 4 µg/mL | 266 µM and 168 µg/mL | 100 µM and 64 µg/mL | 50 µM and 32 µg/mL | 50 µM and 32 µg/mL |
| COC(=O)[C@H](NC(=O)CC[C@@H](C)[C@H]1CCC2C3CC[C@@H]4C[C@@H](NCCCN5CCN(CCCN)CC5)CC[C@]4(C)C3C[C@H](O)[C@@]21C)C(C)C (stereo partly drawn) [Compound S053, methyl ((4R)-4-((3S,5R,10S,12S,13R,17R)-3-((3-(4-(3-aminopropyl)piperazin-1-yl)propyl)amino)-12-hydroxy-10,13-dimethylhexadecahydro-1H-cyclopenta[a]phenanthren-17-yl)pentanoyl)-D-valinate] |  |  |  |  |  |  |  |  | 200 µM and 128 µg/mL | > 100 µM and > 68 µg/mL | > 200 µM and > 128 µg/mL | 12.5 µM and 8 µg/mL | 100 µM and 64 µg/mL |
| COC(=O)[C@@H](Cc1ccccc1)NC(=O)CC[C@@H](C)[C@H]1CCC2C3C(CC[C@@]21C)[C@@]1(C)CC[C@H](NCCCNCCCN)C[C@H]1C[C@H]3O (stereo partly drawn) [Compound S028, methyl ((4R)-4-((3S,5S,7R,10S,13R,17R)-3-((3-((3-aminopropyl)amino)propyl)amino)-7-hydroxy-10,13-dimethylhexadecahydro-1H-cyclopenta[a]phenanthren-17-yl)pentanoyl)-D-phenylalaninate] |  |  |  |  |  |  |  |  | 12.5 µM and 8 µg/mL | 54.6 µM and 36.4 µg/mL | 50 µM and 32 µg/mL | 12.5 µM and 8 µg/mL | 6.25 µM and 4 µg/mL |
| COC(=O)[C@@H](Cc1ccc(O)cc1)NC(=O)CC[C@@H](C)[C@H]1CCC2C3C(C[C@H](O)[C@@]21C)[C@@]1(C)CC[C@H](NCCCNCCCCNCCCN)C[C@H]1C[C@H]3O (stereo partly drawn) [Compound S061, methyl ((4R)-4-((3S,5S,7R,10S,12S,13R,17R)-3-((3-((4-((3-aminopropyl)amino)butyl)amino)propyl)amino)-7,12-dihydroxy-10,13-dimethylhexadecahydro-1H-cyclopenta[a]phenanthren-17-yl)pentanoyl)-D-tyrosinate] |  |  |  |  |  |  |  |  | 100 µM and 64 µg/mL | 6.85 µM and 5.17 µg/mL | 100 µM and 64 µg/mL | 6.25 µM and 4 µg/mL | 100 µM and 64 µg/mL |
| COC(=O)[C@H](Cc1ccccc1)NC(=O)CC[C@@H](C)[C@H]1CCC2C3CC[C@@H]4C[C@@H](NCCCN(CCCN)CCCN)CC[C@]4(C)C3C[C@H](O)[C@@]21C (stereo partly drawn) [Compound S055, methyl ((4R)-4-((3S,5R,10S,12S,13R,17R)-3-((3-(bis(3-aminopropyl)amino)propyl)amino)-12-hydroxy-10,13-dimethylhexadecahydro-1H-cyclopenta[a]phenanthren-17-yl)pentanoyl)-L-phenylalaninate] |  |  |  |  |  |  |  |  | 50 µM and 32 µg/mL |  | 100 µM and 64 µg/mL | 50 µM and 32 µg/mL | 25 µM and 16 µg/mL |
| COC(=O)[C@H](Cc1ccccc1)NC(=O)CC[C@@H](C)[C@H]1CCC2C3C(CC[C@@]21C)[C@@]1(C)CC[C@H](NCCCCCCCCCCN)C[C@H]1C[C@H]3O (stereo partly drawn) [Compound S032, methyl ((4R)-4-((3S,5S,7R,10S,13R,17R)-3-((10-aminodecyl)amino)-7-hydroxy-10,13-dimethylhexadecahydro-1H-cyclopenta[a]phenanthren-17-yl)pentanoyl)-L-phenylalaninate] |  |  |  |  |  |  |  |  | 12.5 µM and 8 µg/mL |  | 200 µM and 128 µg/mL | 50 µM and 32 µg/mL | 50 µM and 32 µg/mL |
| COC(=O)CNC(=O)CC[C@@H](C)[C@H]1CCC2C3C(CC[C@@]21C)[C@@]1(C)CC[C@H](NCCCNCCCCNCCCN)C[C@H]1C[C@H]3O (stereo partly drawn) [Compound S027, methyl ((4R)-4-((3S,5S,7R,10S,13R,17R)-3-((3-((4-((3-aminopropyl)amino)butyl)amino)propyl)amino)-7-hydroxy-10,13-dimethylhexadecahydro-1H-cyclopenta[a]phenanthren-17-yl)pentanoyl)glycinate] | 16 µg/mL (≈ 24.7 µM) | 25 µM (≈ 16.2 µg/mL) | 32 µg/mL (≈ 49.4 µM) | 50 µM (≈ 32.4 µg/mL) | 4 µg/mL (≈ 6.17 µM) | 6.25 µM (≈ 4.05 µg/mL) | 8 µg/mL (≈ 12.3 µM) | 12.5 µM (≈ 8.1 µg/mL) |  |  |  |  |  |
| COC(=O)[C@@H](NC(=O)CC[C@@H](C)[C@H]1CCC2C3CC[C@@H]4C[C@@H](NCCCN5CCN(CCCN)CC5)CC[C@]4(C)C3CC[C@@]21C)C(C)C (stereo partly drawn) [Compound S056, methyl ((4R)-4-((3S,5R,10S,13R,17R)-3-((3-(4-(3-aminopropyl)piperazin-1-yl)propyl)amino)-10,13-dimethylhexadecahydro-1H-cyclopenta[a]phenanthren-17-yl)pentanoyl)-L-valinate] |  |  |  |  |  |  |  |  | 100 µM and 64 µg/mL |  | > 200 µM and > 128 µg/mL | 200 µM and 128 µg/mL | 200 µM and 128 µg/mL |
